Experimental findings from patent US20240279190A1, “COMPOUNDS FOR MODULATING PLATELET-TYPE 12-(S)-LIPOXYGENASE AND METHODS OF USE FOR SAME” (The Regents of The University of California, priority 2021, published 2024) are described below.

Experiment [1] has as its target T1, 12-LOX mutant F352L (Homo sapiens, UniProt P18054, F352L).
T1 construct: 6xHis (N); made in house; pFastBac1 shuttle vector
T1 sequence (P18054 1-663 F352L): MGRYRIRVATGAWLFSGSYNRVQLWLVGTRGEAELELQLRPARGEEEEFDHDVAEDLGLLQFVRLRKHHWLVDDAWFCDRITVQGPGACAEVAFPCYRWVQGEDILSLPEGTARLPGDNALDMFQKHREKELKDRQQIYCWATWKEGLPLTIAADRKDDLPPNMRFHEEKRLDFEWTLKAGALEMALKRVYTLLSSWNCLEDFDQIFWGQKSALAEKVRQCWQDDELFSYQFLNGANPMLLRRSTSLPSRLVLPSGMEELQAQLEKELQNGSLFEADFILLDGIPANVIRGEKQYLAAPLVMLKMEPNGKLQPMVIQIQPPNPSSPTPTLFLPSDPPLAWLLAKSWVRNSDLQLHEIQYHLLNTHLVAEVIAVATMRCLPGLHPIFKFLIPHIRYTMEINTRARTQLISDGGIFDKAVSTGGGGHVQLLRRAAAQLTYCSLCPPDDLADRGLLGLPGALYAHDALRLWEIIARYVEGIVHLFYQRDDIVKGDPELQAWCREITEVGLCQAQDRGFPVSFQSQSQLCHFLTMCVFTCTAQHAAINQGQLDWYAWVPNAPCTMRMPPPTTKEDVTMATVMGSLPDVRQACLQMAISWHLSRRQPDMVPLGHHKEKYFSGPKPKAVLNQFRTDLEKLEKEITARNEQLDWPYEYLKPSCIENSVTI
Description: UV-Vis-based IC50 assay, F352L mutant. It is filed as biochemical. An excerpt: (§1) Based on the ML355 binding mode predicted by the modeling, all residues within 5 Å of any atom of ML355 were selected for experimental mutagenesis. The selected residues were replaced with amino acids with either bulkier or smaller side chains in order to determine what specific interactions play a role in inhibitor binding. […] The numbering refers to the UniProt accession number P18054 sequence, with the N-terminal methionine assigned as amino acid number one. The primers for all mutants were designed using the online QuikChange Primer Design tool (http://www.genomics.agilent.com/primerDesignProgram.jsp) from Agilent Technologies (CA, USA). The mutations were introduced by using the QuikChange® II XL site-directed mutagenesis kit from Agilent, following the instructions in the protocol provided. […]
(§2) The wild type 12-LOX (wt-12-LOX) enzyme and its mutants were expressed as fusion proteins, with an N-terminal 6×His tag, and were affinity purified by nickel-iminodiacetic acid agarose using FPLC (Biorad).
(§3) The percent inhibition was determined by comparing the enzyme rates of the control (DMSO solvent) and the inhibitor sample by following the formation of the conjugated diene product at 234 nm (ε=25,000 M^−1cm^−1). […] The substrate concentration was quantitatively determined by allowing the enzymatic reaction to go to completion in the presence of soybean LOX-1. […]

For experiment [2], the target named is T2, 12-LOX mutant A417I/V418M (Homo sapiens, UniProt P18054, A417I/V418M).
T2 construct: 6xHis (N); made in house; pFastBac1 shuttle vector
T2 sequence (P18054 1-663 A417I/V418M): T1 sequence (P18054 1-663 F352L) with L352F, A417I, V418M
Description: UV-Vis-based IC50 assay, A417I/V418M mutant. Type of experiment: biochemical.
Description: as §1, §2, §3

Substitutions are numbered along the chain they refer to.

For `COc1cccc(CNc2ccc(S(=O)(=O)Nc3nc4c(ccc5ccccc54)s3)cc2)c1O` [Compound LOX-12-001, 4-((2-hydroxy-3-methoxybenzyl)amino)-N-(naphtho[1,2-d]thiazol-2-yl)benzenesulfonamide], the IC50 (in general, the point on the concentration scale where inhibition reaches its midpoint) in experiment [1] (F352L) worked out at 490 ± 50 nM; in experiment [2] (A417I/V418M), 120 ± 40 nM. Moreover, the “fold increase in IC50 compared to wt12-LOX” value in experiment [1] (F352L vs wt12-LOX) is 9.8 fold. The “fold decrease in potency (increase in IC50) compared to wt12-LOX” value in experiment [2] (A417I/V418M vs wt12-LOX) is reported as 2.4 fold.
